Measurements taken from ChEMBL document CHEMBL4507275, “Data for DCP probe BI-2545” (2021).

Legend:
[1] = biological target: Phosphatidylinositol 3-kinase C2 domain-containing subunit gamma (Homo sapiens) (UniProt O75747); settings: Compound concentration 1000.0 nM
[2] = biological target: Cyclin-dependent kinase 11A (Homo sapiens) (UniProt Q9UQ88); settings: Compound concentration 1000.0 nM
[3] = system: Epidermal growth factor receptor (Homo sapiens), P00533 [UNDEFINED MUTATION]; settings: Compound concentration 1000.0 nM
[4] = biological target: Tyrosine-protein kinase BTK (Homo sapiens) (UniProt Q06187); settings: Compound concentration 1000.0 nM
[5] = system: Phosphatidylinositol 4,5-bisphosphate 3-kinase catalytic subunit alpha isoform (Homo sapiens), P42336 [M1043I]; settings: Compound concentration 1000.0 nM
[6] = biological target: Ribosomal protein S6 kinase alpha-5 (Homo sapiens) (UniProt O75582); settings: Compound concentration 1000.0 nM
[7] = biological target: Myosin light chain kinase, smooth muscle (Homo sapiens) (UniProt Q15746); settings: Compound concentration 1000.0 nM
[8] = biological target: Ephrin type-A receptor 7 (Homo sapiens) (UniProt Q15375); settings: Compound concentration 1000.0 nM
[9] = biological target: Serine/threonine-protein kinase ULK3 (Homo sapiens) (UniProt Q6PHR2); settings: Compound concentration 1000.0 nM
[10] = biological target: Ribosomal protein S6 kinase alpha-2 (Homo sapiens) (UniProt Q15349); settings: Compound concentration 1000.0 nM
[11] = biological target: Vascular endothelial growth factor receptor 2 (Homo sapiens) (UniProt P35968); settings: Compound concentration 1000.0 nM
Sequence of Vascular endothelial growth factor receptor 2 (Homo sapiens) (P35968 whole entry): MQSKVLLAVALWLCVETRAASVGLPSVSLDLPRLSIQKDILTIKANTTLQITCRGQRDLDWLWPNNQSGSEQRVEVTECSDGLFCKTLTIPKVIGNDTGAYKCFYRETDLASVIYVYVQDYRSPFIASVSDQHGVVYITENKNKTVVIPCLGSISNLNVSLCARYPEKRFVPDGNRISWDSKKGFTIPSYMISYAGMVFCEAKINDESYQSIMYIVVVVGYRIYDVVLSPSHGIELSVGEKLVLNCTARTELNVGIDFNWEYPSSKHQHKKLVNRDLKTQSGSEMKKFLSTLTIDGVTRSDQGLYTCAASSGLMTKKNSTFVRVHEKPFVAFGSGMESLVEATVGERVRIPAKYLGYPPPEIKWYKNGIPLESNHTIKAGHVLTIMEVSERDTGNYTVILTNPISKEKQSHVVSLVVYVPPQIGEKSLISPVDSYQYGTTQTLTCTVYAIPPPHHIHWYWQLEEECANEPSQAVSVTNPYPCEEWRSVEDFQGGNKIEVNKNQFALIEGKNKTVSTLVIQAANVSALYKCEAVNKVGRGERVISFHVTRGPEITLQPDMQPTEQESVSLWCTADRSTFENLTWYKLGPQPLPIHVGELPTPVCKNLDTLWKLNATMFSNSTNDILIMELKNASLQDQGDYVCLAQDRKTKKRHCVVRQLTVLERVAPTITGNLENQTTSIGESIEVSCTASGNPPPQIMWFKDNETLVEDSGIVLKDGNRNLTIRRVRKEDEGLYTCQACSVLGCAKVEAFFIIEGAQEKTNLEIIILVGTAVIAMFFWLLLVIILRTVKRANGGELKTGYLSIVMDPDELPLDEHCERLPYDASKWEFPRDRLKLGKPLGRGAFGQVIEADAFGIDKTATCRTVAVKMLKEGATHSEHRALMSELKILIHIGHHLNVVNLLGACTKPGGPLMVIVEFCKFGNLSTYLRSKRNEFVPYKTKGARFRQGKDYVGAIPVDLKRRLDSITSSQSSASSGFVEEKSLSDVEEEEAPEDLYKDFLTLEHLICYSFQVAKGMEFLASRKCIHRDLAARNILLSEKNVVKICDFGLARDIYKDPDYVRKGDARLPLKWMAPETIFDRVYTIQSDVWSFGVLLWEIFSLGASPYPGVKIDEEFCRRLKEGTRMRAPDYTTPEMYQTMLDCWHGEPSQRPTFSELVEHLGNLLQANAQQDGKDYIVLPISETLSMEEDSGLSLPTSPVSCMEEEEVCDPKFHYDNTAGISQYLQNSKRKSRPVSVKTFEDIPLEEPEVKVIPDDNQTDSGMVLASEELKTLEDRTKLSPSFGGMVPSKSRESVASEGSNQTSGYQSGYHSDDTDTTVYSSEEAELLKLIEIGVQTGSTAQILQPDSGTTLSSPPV

[12] = biological target: MAP kinase-interacting serine/threonine-protein kinase 2 (Homo sapiens) (UniProt Q9HBH9); settings: Compound concentration 1000.0 nM
[13] = biological target: 5-hydroxytryptamine receptor 5A (Homo sapiens) (UniProt P47898); settings: Compound concentration 10.0 uM
[14] = biological target: Macrophage colony-stimulating factor 1 receptor (Homo sapiens) (UniProt P07333); settings: Compound concentration 1000.0 nM
[15] = biological target: Serine/threonine-protein kinase MRCK gamma (Homo sapiens) (UniProt Q6DT37); settings: Compound concentration 1000.0 nM
[16] = system: Phosphatidylinositol 4,5-bisphosphate 3-kinase catalytic subunit alpha isoform (Homo sapiens), P42336 [E545A]; settings: Compound concentration 1000.0 nM
[17] = biological target: Serine/threonine-protein kinase Nek5 (Homo sapiens) (UniProt Q6P3R8); settings: Compound concentration 1000.0 nM
Sequence of Serine/threonine-protein kinase Nek5 (Homo sapiens) (Q6P3R8 whole entry): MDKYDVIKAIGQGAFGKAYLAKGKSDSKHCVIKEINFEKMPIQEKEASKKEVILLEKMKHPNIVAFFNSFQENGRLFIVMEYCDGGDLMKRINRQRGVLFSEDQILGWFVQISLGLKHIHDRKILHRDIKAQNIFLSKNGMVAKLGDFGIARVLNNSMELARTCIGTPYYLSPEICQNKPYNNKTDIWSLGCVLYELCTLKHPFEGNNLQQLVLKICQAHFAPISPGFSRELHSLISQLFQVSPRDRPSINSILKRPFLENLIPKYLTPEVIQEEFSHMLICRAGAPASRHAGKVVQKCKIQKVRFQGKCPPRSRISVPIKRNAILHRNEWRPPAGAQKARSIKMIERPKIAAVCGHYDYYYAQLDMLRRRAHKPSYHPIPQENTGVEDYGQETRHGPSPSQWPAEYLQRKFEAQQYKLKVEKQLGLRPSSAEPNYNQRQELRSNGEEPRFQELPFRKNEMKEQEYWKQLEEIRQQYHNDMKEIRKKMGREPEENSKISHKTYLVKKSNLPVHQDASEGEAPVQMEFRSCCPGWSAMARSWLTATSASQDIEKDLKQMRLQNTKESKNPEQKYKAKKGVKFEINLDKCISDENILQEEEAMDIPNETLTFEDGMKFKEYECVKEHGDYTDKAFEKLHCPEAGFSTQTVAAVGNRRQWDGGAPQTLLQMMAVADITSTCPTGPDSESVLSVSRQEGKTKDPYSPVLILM

[18] = biological target: Serine/threonine-protein kinase D1 (Homo sapiens) (UniProt Q15139); settings: Compound concentration 1000.0 nM
[19] = biological target: Inhibitor of nuclear factor kappa-B kinase subunit epsilon (Homo sapiens) (UniProt Q14164); settings: Compound concentration 1000.0 nM
[20] = biological target: Fibroblast growth factor receptor 1 (Homo sapiens) (UniProt P11362); settings: Compound concentration 1000.0 nM
Sequence of Fibroblast growth factor receptor 1 (Homo sapiens) (P11362 22-822 limits assumed): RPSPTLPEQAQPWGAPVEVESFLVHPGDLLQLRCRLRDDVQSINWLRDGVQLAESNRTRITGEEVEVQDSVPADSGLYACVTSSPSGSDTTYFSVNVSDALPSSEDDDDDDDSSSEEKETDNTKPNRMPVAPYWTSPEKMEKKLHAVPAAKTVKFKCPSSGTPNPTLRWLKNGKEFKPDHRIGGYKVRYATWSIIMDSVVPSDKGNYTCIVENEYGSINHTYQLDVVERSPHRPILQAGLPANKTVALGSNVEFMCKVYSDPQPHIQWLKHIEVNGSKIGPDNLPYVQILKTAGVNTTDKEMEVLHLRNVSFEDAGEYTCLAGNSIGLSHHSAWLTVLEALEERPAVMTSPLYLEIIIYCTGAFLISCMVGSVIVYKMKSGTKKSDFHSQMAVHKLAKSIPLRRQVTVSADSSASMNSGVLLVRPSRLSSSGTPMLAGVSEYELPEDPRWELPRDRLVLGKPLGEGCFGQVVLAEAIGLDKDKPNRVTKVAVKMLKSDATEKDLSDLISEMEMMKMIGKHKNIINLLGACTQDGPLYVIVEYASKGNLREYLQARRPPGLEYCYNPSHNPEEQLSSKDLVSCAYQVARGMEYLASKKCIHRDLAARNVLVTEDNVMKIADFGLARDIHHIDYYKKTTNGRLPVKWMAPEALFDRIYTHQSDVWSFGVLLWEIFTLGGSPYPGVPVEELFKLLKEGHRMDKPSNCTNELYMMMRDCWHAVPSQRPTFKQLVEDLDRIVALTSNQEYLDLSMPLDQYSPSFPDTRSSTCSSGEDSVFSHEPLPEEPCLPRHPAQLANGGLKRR

[21] = biological target: D(1A) dopamine receptor (Homo sapiens) (UniProt P21728); settings: Compound concentration 10.0 uM
[22] = biological target: Serine/threonine-protein kinase VRK2 (Homo sapiens) (UniProt Q86Y07); settings: Compound concentration 1000.0 nM
Sequence of Serine/threonine-protein kinase VRK2 (Homo sapiens) (Q86Y07 whole entry): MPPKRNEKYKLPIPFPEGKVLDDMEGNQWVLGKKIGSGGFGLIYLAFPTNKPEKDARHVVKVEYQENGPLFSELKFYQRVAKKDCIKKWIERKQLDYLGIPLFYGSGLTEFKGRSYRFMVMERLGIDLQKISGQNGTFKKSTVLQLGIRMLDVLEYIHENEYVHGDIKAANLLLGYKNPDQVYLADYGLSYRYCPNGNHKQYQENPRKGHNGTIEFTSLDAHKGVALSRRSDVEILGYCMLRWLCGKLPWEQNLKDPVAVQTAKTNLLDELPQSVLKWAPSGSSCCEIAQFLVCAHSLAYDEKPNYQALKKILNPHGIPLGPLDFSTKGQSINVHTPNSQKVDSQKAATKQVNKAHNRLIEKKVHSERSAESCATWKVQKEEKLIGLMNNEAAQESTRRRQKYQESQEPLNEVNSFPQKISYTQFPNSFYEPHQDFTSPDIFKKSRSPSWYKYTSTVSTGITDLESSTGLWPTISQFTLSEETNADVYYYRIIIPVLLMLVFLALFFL

[23] = biological target: Sodium-dependent serotonin transporter (Homo sapiens) (UniProt P31645); settings: Compound concentration 10.0 uM
[24] = system: Receptor-type tyrosine-protein kinase FLT3 (Homo sapiens), P36888 [K663Q]; settings: Compound concentration 1000.0 nM
[25] = system: Mast/stem cell growth factor receptor Kit (Homo sapiens), P10721 [V559D,T670I]; settings: Compound concentration 1000.0 nM
Sequence of Mast/stem cell growth factor receptor Kit (Homo sapiens), P10721 [V559D,T670I] (P10721 whole entry V559D/T670I): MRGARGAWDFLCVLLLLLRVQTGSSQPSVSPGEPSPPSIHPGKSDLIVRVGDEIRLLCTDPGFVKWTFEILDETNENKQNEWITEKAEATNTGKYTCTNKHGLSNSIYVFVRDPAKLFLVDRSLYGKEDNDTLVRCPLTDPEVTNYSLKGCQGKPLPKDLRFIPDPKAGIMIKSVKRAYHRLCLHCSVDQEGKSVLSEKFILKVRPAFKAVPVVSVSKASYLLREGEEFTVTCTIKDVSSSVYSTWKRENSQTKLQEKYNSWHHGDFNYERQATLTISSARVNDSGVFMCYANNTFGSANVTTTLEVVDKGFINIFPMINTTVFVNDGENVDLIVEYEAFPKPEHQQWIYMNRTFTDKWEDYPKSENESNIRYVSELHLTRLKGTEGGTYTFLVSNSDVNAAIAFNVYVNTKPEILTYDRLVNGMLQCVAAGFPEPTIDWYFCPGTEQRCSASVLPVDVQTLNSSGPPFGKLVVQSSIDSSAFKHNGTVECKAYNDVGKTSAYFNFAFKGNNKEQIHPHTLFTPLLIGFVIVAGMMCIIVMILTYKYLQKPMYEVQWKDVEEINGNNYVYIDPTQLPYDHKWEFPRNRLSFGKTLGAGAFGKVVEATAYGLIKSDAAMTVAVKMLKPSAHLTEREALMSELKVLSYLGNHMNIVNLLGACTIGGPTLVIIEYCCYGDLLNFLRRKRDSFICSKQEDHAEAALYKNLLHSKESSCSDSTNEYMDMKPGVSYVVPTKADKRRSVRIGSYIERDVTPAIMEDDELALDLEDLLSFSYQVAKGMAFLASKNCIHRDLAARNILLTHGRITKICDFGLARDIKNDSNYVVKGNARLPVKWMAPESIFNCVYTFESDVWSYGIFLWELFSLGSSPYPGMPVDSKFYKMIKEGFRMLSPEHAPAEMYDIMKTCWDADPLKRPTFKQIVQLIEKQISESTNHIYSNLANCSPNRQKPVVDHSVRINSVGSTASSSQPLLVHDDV

[26] = biological target: Dual specificity tyrosine-phosphorylation-regulated kinase 1B (Homo sapiens) (UniProt Q9Y463); settings: Compound concentration 1000.0 nM
[27] = biological target: Hormonally up-regulated neu tumor-associated kinase (Homo sapiens) (UniProt P57058); settings: Compound concentration 1000.0 nM
[28] = biological target: Tyrosine-protein kinase Lck (Homo sapiens) (UniProt P06239); settings: Compound concentration 1000.0 nM
[29] = biological target: Mitogen-activated protein kinase 9 (Homo sapiens) (UniProt P45984); settings: Compound concentration 1000.0 nM
[30] = biological target: Inhibitor of nuclear factor kappa-B kinase subunit alpha (Homo sapiens) (UniProt O15111); settings: Compound concentration 1000.0 nM
[31] = biological target: Dual specificity mitogen-activated protein kinase kinase 5 (Homo sapiens) (UniProt Q13163); settings: Compound concentration 1000.0 nM
[32] = biological target: Mitogen-activated protein kinase 7 (Homo sapiens) (UniProt Q13164); settings: Compound concentration 1000.0 nM
[33] = system: Receptor-type tyrosine-protein kinase FLT3 (Homo sapiens), P36888 [UNDEFINED MUTATION]; settings: Compound concentration 1000.0 nM
[34] = biological target: Mitogen-activated protein kinase kinase kinase 14 (Homo sapiens) (UniProt Q99558); settings: Compound concentration 1000.0 nM
[35] = biological target: Serine/threonine-protein kinase WNK1 (Homo sapiens) (UniProt Q9H4A3); settings: Compound concentration 1000.0 nM
[36] = system: Hepatocyte growth factor receptor (Homo sapiens), P08581 [Y1235D]; settings: Compound concentration 1000.0 nM
[37] = system: Mast/stem cell growth factor receptor Kit (Homo sapiens), P10721 [D816V]; settings: Compound concentration 1000.0 nM
Sequence of Mast/stem cell growth factor receptor Kit (Homo sapiens), P10721 [D816V] (P10721 whole entry D816V): as the sequence (P10721 whole entry V559D/T670I) above, with D559V, I670T, D816V counted along it

[38] = biological target: Myosin light chain kinase 2, skeletal/cardiac muscle (Homo sapiens) (UniProt Q9H1R3); settings: Compound concentration 1000.0 nM
[39] = biological target: Serine/threonine-protein kinase PLK1 (Homo sapiens) (UniProt P53350); settings: Compound concentration 1000.0 nM
Sequence of Serine/threonine-protein kinase PLK1 (Homo sapiens) (P53350 whole entry): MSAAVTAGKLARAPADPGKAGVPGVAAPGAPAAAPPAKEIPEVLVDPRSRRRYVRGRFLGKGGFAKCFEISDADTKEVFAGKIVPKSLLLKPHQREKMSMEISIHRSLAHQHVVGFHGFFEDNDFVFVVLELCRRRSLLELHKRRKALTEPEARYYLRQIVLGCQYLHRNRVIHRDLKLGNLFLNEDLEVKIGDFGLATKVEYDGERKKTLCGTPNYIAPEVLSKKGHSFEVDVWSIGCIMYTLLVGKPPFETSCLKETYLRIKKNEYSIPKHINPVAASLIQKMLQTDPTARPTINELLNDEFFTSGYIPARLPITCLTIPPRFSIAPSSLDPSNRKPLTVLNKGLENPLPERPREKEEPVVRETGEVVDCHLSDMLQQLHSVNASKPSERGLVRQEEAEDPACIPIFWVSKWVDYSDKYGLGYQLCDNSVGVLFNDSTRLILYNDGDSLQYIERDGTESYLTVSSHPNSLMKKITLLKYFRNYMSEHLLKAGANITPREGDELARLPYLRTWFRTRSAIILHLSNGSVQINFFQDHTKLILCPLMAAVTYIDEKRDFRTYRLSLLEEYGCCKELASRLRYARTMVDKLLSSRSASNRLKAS

[40] = biological target: Mitogen-activated protein kinase kinase kinase 11 (Homo sapiens) (UniProt Q16584); settings: Compound concentration 1000.0 nM
[41] = biological target: Epidermal growth factor receptor (Homo sapiens) (UniProt P00533); settings: Compound concentration 1000.0 nM
[42] = system: Tyrosine-protein kinase ABL1 (Homo sapiens), P00519 [Y253F]; settings: Compound concentration 1000.0 nM
[43] = biological target: NUAK family SNF1-like kinase 2 (Homo sapiens) (UniProt Q9H093); settings: Compound concentration 1000.0 nM
[44] = biological target: Dual specificity mitogen-activated protein kinase kinase 1 (Homo sapiens) (UniProt Q02750); settings: Compound concentration 1000.0 nM

## O=C(NC[C@@H]1[C@H]2CN(C(=O)OCc3cc(C(F)(F)F)cc(C(F)(F)F)c3)C[C@@H]12)c1ccc2[nH]nnc2c1 [BI 2545]
[1]
  residual activity: 100%
[2]
  residual activity: 100%
[3]
  residual activity: 83%
[4]
  residual activity: 100%
[5]
  residual activity: 95%
[6]
  residual activity: 100%
[7]
  residual activity: 88%
[8]
  residual activity: 96%
[9]
  residual activity: 99%
[10]
  residual activity: 84%
[11]
  residual activity: 96%
[12]
  residual activity: 90%
[13]
  inhibition: 33.2%
[14]
  residual activity: 95%
[15]
  residual activity: 90%
[16]
  residual activity: 96%
[17]
  residual activity: 94%
[18]
  residual activity: 100%
[19]
  residual activity: 100%
[20]
  residual activity: 90%
[21]
  inhibition: 8.68%
[22]
  residual activity: 100%
[23]
  inhibition: -9.34%
[24]
  residual activity: 98%
[25]
  residual activity: 100%
[26]
  residual activity: 86%
[27]
  residual activity: 100%
[28]
  residual activity: 100%
[29]
  residual activity: 100%
[30]
  residual activity: 100%
[31]
  residual activity: 100%
[32]
  residual activity: 100%
[33]
  residual activity: 85%
[34]
  residual activity: 77%
[35]
  residual activity: 90%
[36]
  residual activity: 76%
[37]
  residual activity: 93%
[38]
  residual activity: 97%
[39]
  residual activity: 100%
[40]
  residual activity: 99%
[41]
  residual activity: 99%
[42]
  residual activity: 95%
[43]
  residual activity: 88%
[44]
  residual activity: 83%

## Cc1nccc(COC(=O)N2C[C@@H]3[C@@H](CNC(=O)c4ccc5[nH]nnc5c4)[C@@H]3C2)n1 [BI 3017]
[1]
  residual activity: 99%
[2]
  residual activity: 100%
[3]
  residual activity: 100%
[4]
  residual activity: 99%
[5]
  residual activity: 100%
[6]
  residual activity: 95%
[7]
  residual activity: 100%
[8]
  residual activity: 89%
[9]
  residual activity: 100%
[10]
  residual activity: 91%
[11]
  residual activity: 80%
[12]
  residual activity: 90%
[13]
  inhibition: 13.2%
[14]
  residual activity: 100%
[15]
  residual activity: 92%
[16]
  residual activity: 87%
[17]
  residual activity: 87%
[18]
  residual activity: 100%
[19]
  residual activity: 100%
[20]
  residual activity: 91%
[21]
  inhibition: -9.63%
[22]
  residual activity: 29%
[23]
  inhibition: -3.25%
[24]
  residual activity: 100%
[25]
  residual activity: 95%
[26]
  residual activity: 99%
[27]
  residual activity: 81%
[28]
  residual activity: 94%
[29]
  residual activity: 95%
[30]
  residual activity: 100%
[31]
  residual activity: 100%
[32]
  residual activity: 98%
[33]
  residual activity: 100%
[34]
  residual activity: 66%
[35]
  residual activity: 86%
[36]
  residual activity: 92%
[37]
  residual activity: 100%
[38]
  residual activity: 90%
[39]
  residual activity: 92%
[40]
  residual activity: 100%
[41]
  residual activity: 82%
[42]
  residual activity: 93%
[43]
  residual activity: 100%
[44]
  residual activity: 92%
